ChEMBL document CHEMBL1201862, “PubChem BioAssay data set” (2004)
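Results reflect a 48-hour exposure of cells in 96-well plates to compound at five concentrations. GI50 marks 50% less growth.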 The source made the active and inactive calls. No stated cut-off is given here; in the data, active = GI50 up to about 1.1 µM and inactive = higher.

Legend:
Assay in all cases: NCI-60 cell line screen, 48 h
786-0 = test system: 786-0
A498 = test system: A498
A549 = test system: A549
ACHN = test system: ACHN
CAKI-1 = test system: CAKI-1
CCRF-CEM = test system: CCRF-CEM
COLO 205 = test system: COLO 205
DU-145 = test system: DU-145
EKVX = test system: EKVX
HCC 2998 = test system: HCC 2998
HCT-116 = test system: HCT-116
HCT-15 = test system: HCT-15
HL-60 = test system: HL-60
HOP-62 = test system: HOP-62
HT-29 = test system: HT-29
Hs-578T = test system: Hs-578T
IGROV-1 = test system: IGROV-1
K562 = test system: K562
KM12 = test system: KM12
LOX IMVI = test system: LOX IMVI
M14 = test system: M14
MCF7 = test system: MCF7
MDA-MB-231 = test system: MDA-MB-231
MDA-MB-435 = test system: MDA-MB-435
MOLT-4 = test system: MOLT-4
Malme-3M = test system: Malme-3M
NCI-H226 = test system: NCI-H226
NCI-H23 = test system: NCI-H23
NCI-H460 = test system: NCI-H460
NCI-H522 = test system: NCI-H522
NCI/ADR-RES = test system: NCI/ADR-RES
OVCAR-3 = test system: OVCAR-3
OVCAR-4 = test system: OVCAR-4
OVCAR-5 = test system: OVCAR-5
OVCAR-8 = test system: OVCAR-8
PC-3 = test system: PC-3
RPMI-8226 = test system: RPMI-8226
RXF 393 = test system: RXF 393
SF-268 = test system: SF-268
SF-295 = test system: SF-295
SF-539 = test system: SF-539
SK-MEL-28 = test system: SK-MEL-28
SK-MEL-2 = test system: SK-MEL-2
SK-MEL-5 = test system: SK-MEL-5
SN12C = test system: SN12C
SNB-19 = test system: SNB-19
SNB-75 = test system: SNB-75
SR = test system: SR
SW-620 = test system: SW-620
T47D = test system: T47D
TK-10 = test system: TK-10
U-251 = test system: U-251
UACC-257 = test system: UACC-257
UACC-62 = test system: UACC-62
UO-31 = test system: UO-31
HOP-92 = test system: HOP-92
MDA-N = test system: MDA-N
SK-OV-3 = test system: SK-OV-3

## CSS(C)(=O)=O
786-0
  GI50: 39.6 µM (inactive)
A498
  GI50: > 100 µM (inactive)
A549
  GI50: 44.7 µM (inactive)
ACHN
  GI50: 26.2 µM (inactive)
CAKI-1
  GI50: 22.8 µM (inactive)
CCRF-CEM
  GI50: < 0.01 µM (active)
COLO 205
  GI50: 1.95 µM (inactive)
DU-145
  GI50: 21.5 µM (inactive)
EKVX
  GI50: 27.9 µM (inactive)
HCC 2998
  GI50: 27.8 µM (inactive)
HCT-116
  GI50: 58.6 µM (inactive)
HCT-15
  GI50: 24.9 µM
HL-60
  GI50: 24.9 µM (inactive)
HOP-62
  GI50: 44.2 µM (inactive)
HT-29
  GI50: 31 µM (inactive)
Hs-578T
  GI50: 49.2 µM (inactive)
IGROV-1
  GI50: 23.2 µM (inactive)
K562
  GI50: 31.3 µM (inactive)
KM12
  GI50: 34.3 µM (inactive)
LOX IMVI
  GI50: 60.1 µM (inactive)
M14
  GI50: 26.6 µM (inactive)
MCF7
  GI50: 26.7 µM (inactive)
MDA-MB-231
  GI50: 30.8 µM (inactive)
MDA-MB-435
  GI50: 20.2 µM (inactive)
MOLT-4
  GI50: 2.43 µM (inactive)
Malme-3M
  GI50: 26.9 µM (inactive)
NCI-H226
  GI50: 21.4 µM (inactive)
NCI-H23
  GI50: 19.9 µM (inactive)
NCI-H460
  GI50: > 100 µM (inactive)
NCI-H522
  GI50: 18.2 µM (inactive)
NCI/ADR-RES
  GI50: 58.9 µM (inactive)
OVCAR-3
  GI50: 16.7 µM (inactive)
OVCAR-4
  GI50: 27.4 µM (inactive)
OVCAR-5
  GI50: 17.5 µM (inactive)
OVCAR-8
  GI50: 27.4 µM (inactive)
PC-3
  GI50: 18 µM (inactive)
RPMI-8226
  GI50: 1.95 µM (inactive)
RXF 393
  GI50: 26.5 µM (inactive)
SF-268
  GI50: 31.5 µM (inactive)
SF-295
  GI50: 23.1 µM (inactive)
SF-539
  GI50: 20.4 µM (inactive)
SK-MEL-28
  GI50: 21.6 µM (inactive)
SK-MEL-2
  GI50: 27.3 µM (inactive)
SK-MEL-5
  GI50: 61.5 µM (inactive)
SN12C
  GI50: 21.5 µM (inactive)
SNB-19
  GI50: > 100 µM (inactive)
SNB-75
  GI50: 32.3 µM (inactive)
SR
  GI50: 15.3 µM (inactive)
SW-620
  GI50: 46.7 µM (inactive)
T47D
  GI50: 15.1 µM (inactive)
TK-10
  GI50: 24.7 µM (inactive)
U-251
  GI50: 37.1 µM (inactive)
UACC-257
  GI50: 23.9 µM (inactive)
UACC-62
  GI50: 19.4 µM (inactive)
UO-31
  GI50: 24.5 µM (inactive)

## COC(=O)CCC1(CCC(=O)OC)CCCCCCC(CCC(=O)OC)(CCC(=O)OC)C(=O)C1=O
786-0
  GI50: > 100 µM (inactive)
A498
  GI50: > 100 µM (inactive)
A549
  GI50: > 100 µM (inactive)
ACHN
  GI50: > 100 µM (inactive)
CAKI-1
  GI50: > 100 µM (inactive)
COLO 205
  GI50: 54 µM (inactive)
DU-145
  GI50: > 100 µM (inactive)
EKVX
  GI50: > 100 µM (inactive)
HCC 2998
  GI50: 27.9 µM (inactive)
HCT-116
  GI50: > 100 µM (inactive)
HCT-15
  GI50: > 100 µM
HOP-62
  GI50: > 100 µM (inactive)
HOP-92
  GI50: 54.6 µM (inactive)
HT-29
  GI50: 60.3 µM (inactive)
Hs-578T
  GI50: > 100 µM (inactive)
IGROV-1
  GI50: > 100 µM (inactive)
K562
  GI50: 23.6 µM (inactive)
KM12
  GI50: > 100 µM (inactive)
LOX IMVI
  GI50: > 100 µM (inactive)
M14
  GI50: 74.1 µM (inactive)
MCF7
  GI50: > 100 µM (inactive)
MDA-MB-435
  GI50: > 100 µM (inactive)
MDA-N
  GI50: > 100 µM (inactive)
Malme-3M
  GI50: > 100 µM (inactive)
NCI-H226
  GI50: > 100 µM (inactive)
NCI-H23
  GI50: > 100 µM (inactive)
NCI-H460
  GI50: 93.8 µM (inactive)
NCI-H522
  GI50: > 100 µM (inactive)
NCI/ADR-RES
  GI50: 81.5 µM (inactive)
OVCAR-3
  GI50: 55.3 µM (inactive)
OVCAR-5
  GI50: > 100 µM (inactive)
OVCAR-8
  GI50: > 100 µM (inactive)
PC-3
  GI50: 47.8 µM (inactive)
RPMI-8226
  GI50: < 0.01 µM (active)
RXF 393
  GI50: > 100 µM (inactive)
SF-268
  GI50: > 100 µM (inactive)
SF-295
  GI50: > 100 µM (inactive)
SF-539
  GI50: > 100 µM (inactive)
SK-MEL-28
  GI50: > 100 µM (inactive)
SK-MEL-2
  GI50: > 100 µM (inactive)
SK-MEL-5
  GI50: 59 µM (inactive)
SK-OV-3
  GI50: > 100 µM (inactive)
SN12C
  GI50: > 100 µM (inactive)
SNB-19
  GI50: > 100 µM (inactive)
SNB-75
  GI50: 49.1 µM (inactive)
T47D
  GI50: 20.5 µM (inactive)
TK-10
  GI50: > 100 µM (inactive)
U-251
  GI50: > 100 µM (inactive)
UACC-257
  GI50: > 100 µM (inactive)
UACC-62
  GI50: > 100 µM (inactive)
UO-31
  GI50: 44.4 µM (inactive)

## CC1(C)NC(C)(C)/C(=N\O)C(=NO)/C1=N/O
786-0
  GI50: > 100 µM (inactive)
A549
  GI50: > 100 µM (inactive)
ACHN
  GI50: > 100 µM (inactive)
CAKI-1
  GI50: > 100 µM (inactive)
CCRF-CEM
  GI50: > 100 µM (inactive)
COLO 205
  GI50: > 100 µM (inactive)
DU-145
  GI50: > 100 µM (inactive)
EKVX
  GI50: > 100 µM (inactive)
HCC 2998
  GI50: > 100 µM (inactive)
HCT-116
  GI50: > 100 µM (inactive)
HCT-15
  GI50: > 100 µM
HL-60
  GI50: > 100 µM (inactive)
HOP-62
  GI50: > 100 µM (inactive)
HOP-92
  GI50: > 100 µM (inactive)
HT-29
  GI50: > 100 µM (inactive)
Hs-578T
  GI50: > 100 µM (inactive)
IGROV-1
  GI50: > 100 µM (inactive)
K562
  GI50: > 100 µM (inactive)
KM12
  GI50: > 100 µM (inactive)
LOX IMVI
  GI50: > 100 µM (inactive)
M14
  GI50: > 100 µM (inactive)
MCF7
  GI50: > 100 µM (inactive)
MDA-MB-231
  GI50: > 100 µM (inactive)
MDA-MB-435
  GI50: > 100 µM (inactive)
MDA-N
  GI50: > 100 µM (inactive)
MOLT-4
  GI50: > 100 µM (inactive)
Malme-3M
  GI50: > 100 µM (inactive)
NCI-H226
  GI50: > 100 µM (inactive)
NCI-H23
  GI50: > 100 µM (inactive)
NCI-H460
  GI50: > 100 µM (inactive)
NCI/ADR-RES
  GI50: > 100 µM (inactive)
OVCAR-3
  GI50: > 100 µM (inactive)
OVCAR-4
  GI50: > 100 µM (inactive)
OVCAR-5
  GI50: > 100 µM (inactive)
OVCAR-8
  GI50: > 100 µM (inactive)
PC-3
  GI50: > 100 µM (inactive)
RPMI-8226
  GI50: > 100 µM (inactive)
RXF 393
  GI50: > 100 µM (inactive)
SF-268
  GI50: > 100 µM (inactive)
SF-295
  GI50: > 100 µM (inactive)
SF-539
  GI50: > 100 µM (inactive)
SK-MEL-28
  GI50: > 100 µM (inactive)
SK-MEL-2
  GI50: > 100 µM (inactive)
SK-MEL-5
  GI50: > 100 µM (inactive)
SK-OV-3
  GI50: > 100 µM (inactive)
SN12C
  GI50: > 100 µM (inactive)
SNB-19
  GI50: > 100 µM (inactive)
SNB-75
  GI50: > 100 µM (inactive)
SR
  GI50: > 100 µM (inactive)
SW-620
  GI50: > 100 µM (inactive)
T47D
  GI50: > 100 µM (inactive)
TK-10
  GI50: > 100 µM (inactive)
U-251
  GI50: > 100 µM (inactive)
UACC-257
  GI50: > 100 µM (inactive)
UACC-62
  GI50: > 100 µM (inactive)
UO-31
  GI50: > 100 µM (inactive)
